test system: Mycobacterium tuberculosis strain H37Rv; experiment: Screen against Mycobacterium tuberculosis strain H37Rv by serial dilution; format: cell-based; conditions: M. tuberculosis H37Rv
Text: All of the compounds were screened against Mycobacterium tuberculosis strain H37Rv by serial dilution. The minimum inhibitory concentration and degree of inhibition is presented.

Molecule | % Inhibition (degree of inhibition) [%] | MIC (minimum inhibitory concentration) [µg/mL]
N=C(NCCCCCCNC(=N)NC(=N)Nc1ccc(Cl)cc1)NC(=N)Nc1ccc(Cl)cc1.Sc1nc2ccccc2s1.Sc1nc2ccccc2s1 [Compound 5, chlorhexidine di-2-mercaptobenzthiazole] | 90 | 1.56
CCCCCCCCCCCC(=O)O.NC(=NCCCCCCN=C(N)N=C(N)Nc1ccc(Cl)cc1)N=C(N)Nc1ccc(Cl)cc1 [Compound 6, chlorhexidine dilaurate] | 99 | 3.13
N=C(NCCCCCCNC(=N)NC(N)=Nc1ccc(Cl)cc1)NC(N)=Nc1ccc(Cl)cc1.NCCCC(O)(P(=O)(O)O)P(=O)(O)O.NCCCC(O)(P(=O)(O)O)P(=O)(O)O [Compound 7, chlorhexidine di [4-amino-1-hydroxybutylidene] bis-phosphonate] | 94 | 3.13
N=C(NCCCCCCNC(=N)NC(=N)Nc1ccc(Cl)cc1)NC(=N)Nc1ccc(Cl)cc1.Oc1ccccc1-c1ccccc1.Oc1ccccc1-c1ccccc1 [Compound 9, chlorhexidine di-ortho phenyl phenol] | 99 | 3.13
CCCCCCCCCCCCCCCCCC(=O)O.CCCCCCCCCCCCCCCCCC(=O)O.N=C(NCCCCCCNC(=N)NC(=N)Nc1ccc(Cl)cc1)NC(=N)Nc1ccc(Cl)cc1 [Compound 11, chlorhexidine distearate] | 99 | 3.13
Isoniazide dodecyl benzene sulfonate [Compound 2] | 99 | 0.78
N-cocoylamide-L-argimine ethyl ester triclosanate [Compound 3] | 94 | 1.56
chlorhexidine beta cyclodextrin sulfobutyl ether [Compound 8] | 94 | 3.13
chlorhexidine dithymol [Compound 4] | 98 | 1.56

Reference: US20060287257A1, “Pharmaceutical compositions to treat diseases caused by mycobacterium” (priority 2005, published 2006)
